One assay deals with WNT signaling. Put plainly: WNT reporter assay (TopGFP reporter). Format: cell-based. To be noted: Human Colonic Epithelial Cells (HCEC) with TopGFP reporter, stimulated with 10 μM CHIR99021, 24 hours. The text has this: KDs were obtained from Eurofins.
(In general: A reporter such as luciferase makes a cellular process visible.)

Assay [1] addresses T1, DYRK1A (Homo sapiens, UniProt Q13627). The experiment in a line: biochemical.
Protocol: (§1) KDs were obtained from Eurofins. The KdELECT Kinase Assay Panel enables quantitated compound binding affinity against any kinase assay. Inhibitor binding constants (Kd values) are calculated from duplicate 11-point dose-response curves. Measurements are made under optimized conditions that generate true thermodynamic Kd values which facilitate direct comparison of inhibitor affinity across kinases.
The target in assay [2] is T1, DYRK1A. Put plainly: KdELECT Kinase Assay Panel (Eurofins) binding affinity. The conditions noted are these: read-out: DYRK1A Kd, duplicate 11-point dose-response curves.
Protocol: as §1

Structures can show the parent of a compound that is named as a salt.

Usually EC50 stands for the concentration giving half of the maximal effect. A lower EC50 goes with an effect from little substance. Broadly, the Kd is the constant that tells how readily two partners part at equilibrium. In the assay on WNT signaling, `Cc1cc(-c2ccc3ncnc(-c4ccc(N5CCOCC5)c(F)c4)c3n2)ccn1` [Compound 17, 4-(2-fluoro-4-(6-(2-methylpyridin-4-yl)pyrido[3,2-d]pyrimidin-4-yl)phenyl)morpholine] registered an EC50 of over 1000 nM. The molecule further gave a Kd at DYRK1A [1] of under 100 nM.

Molecule `Nc1cc(-c2ccc3ncnc(-c4cnc(N5CCC6(CCNC6=O)CC5)c(F)c4)c3c2)ccn1` [Compound 30, 8-(5-(6-(2-aminopyridin-4-yl)quinazolin-4-yl)-3-fluoropyridin-2-yl)-2,8-diazaspiro[4.5]decan-1-one] came in with an EC50 in the assay with WNT signaling of 100 to 1000 nM. For the same molecule, the Kd at DYRK1A [1] was under 100 nM.

With `CN1CCN(c2ccc(-c3ncnc4ccc(-c5ccnc(N)c5)cc34)cc2F)CC1` [Compound 25, 4-(4-(3-fluoro-4-(4-methylpiperazin-1-yl)phenyl)quinazolin-6-yl)pyridin-2-amine], the EC50 in the assay on WNT signaling is under 100 nM. At DYRK1A [1], this molecule had a Kd of under 100 nM.

As for `Nc1cc(-c2ccc3ncnc(-c4cnc(N5CCC6(CCOC6)CC5)c(F)c4)c3c2)ccn1` [Compound 23, 4-(4-(5-fluoro-6-(2-oxa-8-azaspiro[4.5]decan-8-yl)pyridin-3-yl)quinazolin-6-yl)pyridin-2-amine hydrochloride], the EC50 with WNT signaling was 100 to 1000 nM. This molecule also yielded an equilibrium dissociation constant (Kd) at DYRK1A [1] of under 100 nM.

Molecule `Fc1cc(-c2ncnc3ccc(-c4c[nH]c5ncccc45)cc23)ccc1N1CCNCC1` [Compound 33, 4-(3-fluoro-4-(piperazin-1-yl)phenyl)-6-(1H-pyrrolo[2,3-b]pyridin-3-yl)quinazoline] gave an EC50 with WNT signaling of 100 to 1000 nM. Besides, the Kd at DYRK1A [1] was under 100 nM.

As to `Nc1cc(-c2ccc3nccc(-c4ccc(N5CCOCC5)c(F)c4)c3c2)ccn1` [Compound 32, 4-(4-(3-fluoro-4-morpholinophenyl)quinolin-6-yl)pyridin-2-amine], in the assay on WNT signaling, the EC50 was 100 to 1000 nM. At DYRK1A [1], the Kd was under 100 nM.

`Nc1cc(-c2ccc3ncnc(-c4ccc(N5CCOCC5)c(F)c4)c3c2)ccn1` [Compound 1, 4-(4-(3-fluoro-4-morpholinophenyl)quinazolin-6-yl)pyridin-2-amine] displayed a concentration for a half-maximal effect (EC50) with WNT signaling of 100 to 1000 nM. The molecule also came in with a Kd at DYRK1A [1] of under 100 nM.

`CC(C)(C)N1CCN(c2ccc(-c3ncnc4ccc(-c5ccnc(N)c5)cc34)cc2F)CC1` [Compound 45, 4-(4-(4-(4-(tert-butyl)piperazin-1-yl)-3-fluorophenyl)quinazolin-6-yl)pyridin-2-amine]: the EC50 in the assay with WNT signaling was 100 to 1000 nM. The Kd on DYRK1A [1] is under 100 nM.

Regarding `CC(=O)N1CCN(c2ccc(-c3ccnc4ccc(-c5ccnc(N)c5)cc34)cc2)CC1` [Compound 38, 1-(4-(4-(6-(2-aminopyridin-4-yl)quinolin-4-yl)phenyl)piperazin-1-yl)ethan-1-one], the EC50 in the assay on WNT signaling is under 100 nM. The molecule also came in with a Kd at DYRK1A [1] of under 100 nM.

`CC(=O)N1CC2(C1)CN(c1ccc(-c3ncnc4ccc(-c5ccnc(N)c5)cc34)cc1)C2` [Compound 44, 41-(6-(4-(6-(2-aminopyridin-4-yl)quinazolin-4-yl)phenyl)-2,6-diazaspiro[3.3]heptan-2-yl)ethan-1-one]: the EC50 in the assay on WNT signaling lay within 100 to 1000 nM. For the same molecule, the Kd on DYRK1A [1] was under 100 nM.

In the assay on WNT signaling, `CC(=O)N1CCN(c2ccc(-c3ncnc4ccc(-c5ccnc(N)c5)cc34)cc2)CC1` [Compound 22, 1-(4-(4-(6-(2-aminopyridin-4-yl)quinazolin-4-yl)phenyl)piperazin-1-yl)ethan-1-one] yielded an EC50 of under 100 nM. Besides, the dissociation constant Kd on DYRK1A [1] is under 100 nM.

Molecule `CC(C)CN1CCN(c2ccc(-c3ncnc4ccc(-c5ccnc(N)c5)cc34)cc2F)CC1` [Compound 48, 4-(4-(3-fluoro-4-(4-isobutylpiperazin-1-yl)phenyl)quinazolin-6-yl)pyridin-2-amine] had an EC50 in the assay on WNT signaling of under 100 nM. The Kd at DYRK1A [1] was under 100 nM.

`CC(C)N1CCN(c2ccc(-c3ncnc4ccc(-c5ccnc(N)c5)cc34)cc2F)CC1` [Compound 50, 4-(4-(3-fluoro-4-(4-isopropylpiperazin-1-yl)phenyl)quinazolin-6-yl)pyridin-2-amine] registered an EC50 in the assay with WNT signaling of 100 to 1000 nM. At DYRK1A [1], the Kd was under 100 nM.

As for `Nc1cc(-c2ccc3ncnc(-c4ccc(N5CCN(CCO)CC5)cc4)c3c2)ccn1` [Compound 41, 2-(4-(4-(6-(2-aminopyridin-4-yl)quinazolin-4-yl)phenyl)piperazin-1-yl)ethan-1-ol], the EC50 with WNT signaling was under 100 nM. Further, the Kd at DYRK1A [1] is under 100 nM.

On to `CC(=O)N1CCN(c2ccc(-c3ncnc4ccc(-c5ccnc(N)c5)cc34)cc2F)CC1` [Compound 34, 1-(4-(4-(6-(2-aminopyridin-4-yl)quinazolin-4-yl)-2-fluorophenyl)piperazin-1-yl)ethan-1-one], for which, in the assay on WNT signaling, the EC50 lay in the range of 100 to 1000 nM. This molecule yielded a Kd on DYRK1A [1] of under 100 nM.

The molecule `Nc1cc(-c2ccc3ncnc(-c4ccc(N5CCN(C6COC6)CC5)cc4)c3c2)ccn1` [Compound 42, 4-(4-(4-(4-(oxetan-3-yl)piperazin-1-yl)phenyl)quinazolin-6-yl)pyridin-2-amine] had an EC50 with WNT signaling of under 100 nM. The Kd on DYRK1A [1] is under 100 nM.

Turning to `CCN1CCN(c2ccc(-c3ncnc4ccc(-c5ccnc(N)c5)cc34)cc2F)CC1` [Compound 36, 4-(4-(4-(4-ethylpiperazin-1-yl)-3-fluorophenyl)quinazolin-6-yl)pyridin-2-amine], in the assay on WNT signaling, the EC50 was in the range of 100 to 1000 nM. This molecule also came in with a Kd at DYRK1A [1] of under 100 nM.

Molecule `COCCN1CCN(c2ccc(-c3ncnc4ccc(-c5ccnc(N)c5)cc34)cc2F)CC1` [Compound 54, 4-(4-(3-fluoro-4-(4-(2-methoxyethyl)piperazin-1-yl)phenyl)quinazolin-6-yl)pyridin-2-amine] yielded an EC50 in the assay on WNT signaling of under 100 nM. At DYRK1A [1], this molecule yielded a Kd of under 100 nM.

The molecule `Nc1cc(-c2ccc3ncnc(-c4cccc(N5CCOCC5)c4)c3c2)ccn1` [Compound 4, 4-(4-(3-morpholinophenyl)quinazolin-6-yl)pyridin-2-amine] returned an EC50 with WNT signaling of over 1000 nM. Further, on DYRK1A [1], the Kd is under 100 nM.

In the assay with WNT signaling, `Nc1cc(-c2ccc3ncnc(-c4ccc(N5CCN(C(=O)C6CC6)CC5)c(F)c4)c3c2)ccn1` [Compound 53, (4-(4-(6-(2-aminopyridin-4-yl)quinazolin-4-yl)-2-fluorophenyl)piperazin-1-yl)(cyclopropyl)methanone] returned an EC50 of under 100 nM. At DYRK1A [1], this molecule returned a Kd of under 100 nM.

`CC(=O)N1C[C@@H]2C[C@H]1CN2c1ccc(-c2ncnc3ccc(-c4ccnc(N)c4)cc23)cc1` [Compound 39, 1-((1S,4S)-5-(4-(6-(2-aminopyridin-4-yl)quinazolin-4-yl)phenyl)-2,5-diazabicyclo[2.2.1]heptan-2-yl)ethan-1-one] gave an EC50 in the assay on WNT signaling of 100 to 1000 nM. This molecule had a Kd on DYRK1A [1] of under 100 nM.

For `CN(C)C(=O)N1CCN(c2ccc(-c3ncnc4ccc(-c5ccnc(N)c5)cc34)cc2F)CC1` [Compound 49, 4-(4-(6-(2-aminopyridin-4-yl)quinazolin-4-yl)-2-fluorophenyl)-N,N-dimethylpiperazine-1-carboxamide], the concentration for a half-maximal effect (EC50) in the assay on WNT signaling is under 100 nM. This molecule came in with a Kd on DYRK1A [1] of under 100 nM.

For `CC(=O)N1C[C@@H]2C[C@H]1CN2c1ccc(-c2ncnc3ccc(-c4ccnc(N)c4)cc23)cc1F` [Compound 40, 1-((1S,4S)-5-(4-(6-(2-aminopyridin-4-yl)quinazolin-4-yl)-2-fluorophenyl)-2,5-diazabicyclo[2.2.1]heptan-2-yl)ethan-1-one], the EC50 with WNT signaling fell in the range of 100 to 1000 nM. Further, the Kd at DYRK1A [1] is under 100 nM.

In the assay with WNT signaling, `Nc1cc(-c2ccc3ncnc(-c4ccc(N5CCOCC5)c(F)c4)c3n2)ccn1` [Compound 12, 4-(4-(3-fluoro-4-morpholinophenyl)pyrido[3,2-d]pyrimidin-6-yl)pyridin-2-amine] yielded an EC50 of under 100 nM. This molecule yielded a Kd at DYRK1A [1] of under 100 nM.

As to `CN1CCN(c2c(F)cc(-c3ncnc4ccc(-c5ccnc(N)c5)cc34)cc2F)CC1` [Compound 31, 4-(4-(3,5-difluoro-4-(4-methylpiperazin-1-yl)phenyl)quinazolin-6-yl)pyridin-2-amine], the EC50 with WNT signaling was 100 to 1000 nM. The same molecule registered an equilibrium dissociation constant (Kd) on DYRK1A [1] of under 100 nM.

Regarding `COc1ccc(-c2ncnc3ccc(-c4ccnc(N)c4)cc23)cc1C` [Compound 21, 4-(4-(4-methoxy-3-methylphenyl)quinazolin-6-yl)pyridin-2-amine], the EC50 with WNT signaling is 100 to 1000 nM. At DYRK1A [1], this molecule gave a Kd of under 100 nM.

In the case of “1-(5-(4-(6-(2-aminopyridin-4-yl)quinazolin-4-yl)-2-fluorophenyl)hexahydropyrrolo[3,4-c]pyrrol-2(1H)-yl)ethan-1-one [Compound 46]”, the Kd on DYRK1A [2] is under 100 nM.

For `CS(=O)(=O)N1CCN(c2ccc(-c3ncnc4ccc(-c5ccnc(N)c5)cc34)cc2F)CC1` [Compound 47, 4-(4-(3-fluoro-4-(4-(methylsulfonyl)piperazin-1-yl)phenyl)quinazolin-6-yl)pyridin-2-amine], in the assay on WNT signaling, the EC50 is under 100 nM. The Kd at DYRK1A [1] is under 100 nM.

The values above are taken from patent publication US20250382277A1, “SMALL MOLECULE INHIBITORS OF DYRK/CLK AND USES THEREOF” (Arizona Board of Regents on Behalf of the University of …, priority 2022, published 2025).
